According to US8741951B2, “Non-steroidal compounds for androgen receptor modulation” (CNR—Consiglio Nazionale delle Ricerche, priority 2009, dated 2014):

Test system: LNCaP cells
Assay: SRB in vitro chemosensitivity assay, LNCaP
Type: cell-based
Details: Homo sapiens, LNCaP, 144 h
Description: (§1) The cell lines were maintained as a monolayer at 37° C. and subcultured weekly. Culture medium was composed of RPMI 1640 supplemented with 10% fetal calf serum and 1% glutamine (Mascia Brunelli s.p.a., Milan, Italy). Cells were used in the exponential growth phase in all the experiments.
(§2) Compounds were dissolved in acetone or DMSO (AITES) ([…]) and stored at −20° C. The cell culture containing acetone at the highest concentration was used as the control.
(§3) Sulforhodamine B (SRB) assay was used according to the method by Skehan et al. (JNCI, 1990). Briefly, cells were collected by trypsinization, counted and plated at a density of 5,000 cells/well in 96-well flat-bottomed microtiter plates (100 μl of cell suspension/well). In the chemosensitivity assay, experiments were run in octuplicate, and each experiment was repeated three times. The optical density (OD) of cells was determined at a wavelength of 490 nm by a colorimetric plate reader.
(§4) If ODtreated is above ODzero, treatment has induced a cytostatic effect, whereas if ODtreated is below ODzero, cell killing has occurred. The ODzero depicts the cell number at the moment of drug addition, the ODcontrol reflects the cell number in untreated wells and the ODtreated reflects the cell number in treated wells on the day of the assay.
(§5) FIGS. 2-11 show the cytotoxic activity of the derivative compounds of the invention on the LNCaP and LNCaP-AR cell lines. The authors examined the antitumour activity of the compounds for which the synthesis is described above, in the hormone-sensitive prostate cancer cell line LNCaP and in its derivative cell line LNCaP-AR, expressing high level of AR and with hormone refractory prostate cancer (HRPC) features. The novel compounds were tested at the increasing concentrations of […], 0.2, 2.0, and 20.0 μM. The highest dose used was chosen on the basis of the clinically achievable peak plasma concentration reported in the literature for bicalutamide (Cockshott I D. Clin Pharmacokinet. 2004; 43(13): 855-78). After 144-hr exposure time the cytotoxic effect of the molecules was calculated according to the method of Monks et al. (Monks A, Scudiero D, Skehan P, et al. Feasibility of a high-flux anticancer drug screen using a diverse panel of cultured human tumor cell lines. J Natl Cancer Inst. 1991; 83: 757-66.)

Row | SMILES | GI50 [µM]
1 | N#Cc1ccc(OCC(O)(Cc2ccccc2)C(=O)Nc2ccc(C#N)c(C(F)(F)F)c2)cc1 (stereo in doubt) [(R)-XXIV-9] | 6.4
2 | N#Cc1ccc(NC(=O)[C@](O)(Cc2cc(F)cc(F)c2)CS(=O)(=O)c2ccc(F)cc2)cc1C(F)(F)F [(R)-XXIII-9] | 5.7

Same assay, conditions: Homo sapiens, LNCaP, 144 h, read-out: LC50, LNCaP cells, 144 h exposure, up to 20 μM

Row | SMILES | LC50 [µM]
3 | N#Cc1ccc(OCC(O)(Cc2ccccc2)C(=O)Nc2ccc(C#N)c(C(F)(F)F)c2)cc1 (stereo in doubt) [(R)-XXIV-9] | 16.2 to 20
4 | N#Cc1ccc(NC(=O)[C@](O)(Cc2cc(F)cc(F)c2)CS(=O)(=O)c2ccc(F)cc2)cc1C(F)(F)F [(R)-XXIII-9] | 16.2 to 20

Same assay, conditions: Homo sapiens; LNCaP cells, 144 h exposure, up to 20 μM; read-out: GI50

Row | SMILES | GI50 [µM]
5 | C[C@](O)(CS(=O)(=O)c1ccc(F)cc1)C(=O)Nc1ccc(C#N)c(C(F)(F)F)c1 [(R)-Bicalutamide, reference compound] | 1.8

Same assay, conditions: LNCaP cells, 144 h exposure, up to 20 μM

Row | SMILES | GI50 | LC50
6 | CC[C@](O)(CS(=O)(=O)c1ccc(F)cc1)C(=O)Nc1ccc(C#N)c(C(F)(F)F)c1 [(R)-XXIII-2] | n.r. | n.r.
7 | C[C@](O)(CS(=O)(=O)c1ccc(F)cc1)C(=O)Nc1ccc(C#N)c(C(F)(F)F)c1 [(R)-Bicalutamide, reference compound] | – | n.r.^a

Same assay, conditions: LNCaP cells, 144 h exposure, up to 20 μM; listed as bicalutamide

Row | SMILES | LC50
8 | C[C@](O)(CS(=O)(=O)c1ccc(F)cc1)C(=O)Nc1ccc(C#N)c(C(F)(F)F)c1 [(R)-Bicalutamide, reference compound] | not observed

Same assay, conditions: LNCaP, 144 h, up to 20 μM

Row | SMILES | cytotoxic effect (cytostatic / cytocidal), in words
9 | CC[C@](O)(CS(=O)(=O)c1ccc(F)cc1)C(=O)Nc1ccc(C#N)c(C(F)(F)F)c1 [(R)-XXIII-2] | weak cytostatic effect
10 | N#Cc1ccc(OCC(O)(Cc2ccccc2)C(=O)Nc2ccc(C#N)c(C(F)(F)F)c2)cc1 (stereo in doubt) [(R)-XXIV-9] | cell killing activity
11 | N#Cc1ccc(NC(=O)[C@](O)(Cc2cc(F)cc(F)c2)CS(=O)(=O)c2ccc(F)cc2)cc1C(F)(F)F [(R)-XXIII-9] | cell killing activity

Same assay, conditions: read-out: LC50; LNCaP cells, 144 h exposure, up to 20 μM

Row | SMILES | LC50 [µM]
12 | N#Cc1ccc(OCC(O)(Cc2ccccc2)C(=O)Nc2ccc(C#N)c(C(F)(F)F)c2)cc1 (stereo in doubt) [(R)-XXIV-9] | 17.4
13 | N#Cc1ccc(NC(=O)[C@](O)(Cc2cc(F)cc(F)c2)CS(=O)(=O)c2ccc(F)cc2)cc1C(F)(F)F [(R)-XXIII-9] | 19.7

Test system: LNCaP-AR cells
Assay: SRB in vitro chemosensitivity assay, LNCaP-AR
Type: cell-based
Details: Homo sapiens, LNCaP/AR, 144 h
Description: as §1, §2, §3, §4, §5

Row | SMILES | GI50 [µM]
14 | N#Cc1ccc(OCC(O)(Cc2ccccc2)C(=O)Nc2ccc(C#N)c(C(F)(F)F)c2)cc1 (stereo in doubt) [(R)-XXIV-9] | 7.1
15 | N#Cc1ccc(NC(=O)[C@](O)(Cc2cc(F)cc(F)c2)CS(=O)(=O)c2ccc(F)cc2)cc1C(F)(F)F [(R)-XXIII-9] | 8.2

Same assay, conditions: LNCaP-AR cells, 144 h exposure, up to 20 μM

Row | SMILES | GI50 | LC50
16 | CC[C@](O)(CS(=O)(=O)c1ccc(F)cc1)C(=O)Nc1ccc(C#N)c(C(F)(F)F)c1 [(R)-XXIII-2] | n.r. | n.r.
17 | C[C@](O)(CS(=O)(=O)c1ccc(F)cc1)C(=O)Nc1ccc(C#N)c(C(F)(F)F)c1 [(R)-Bicalutamide, reference compound] | n.r. | n.r.
18 | N#Cc1ccc(OCC(O)(Cc2ccccc2)C(=O)Nc2ccc(C#N)c(C(F)(F)F)c2)cc1 (stereo in doubt) [(R)-XXIV-9] | – | n.r.
19 | N#Cc1ccc(NC(=O)[C@](O)(Cc2cc(F)cc(F)c2)CS(=O)(=O)c2ccc(F)cc2)cc1C(F)(F)F [(R)-XXIII-9] | – | n.r.

Same assay, conditions: LNCaP-AR cells, 144 h exposure, up to 20 μM; listed as bicalutamide

Row | SMILES | LC50
20 | C[C@](O)(CS(=O)(=O)c1ccc(F)cc1)C(=O)Nc1ccc(C#N)c(C(F)(F)F)c1 [(R)-Bicalutamide, reference compound] | not observed

Same assay, conditions: LNCaP-AR, 144 h, up to 20 μM

Row | SMILES | cytotoxic effect (cytostatic / cytocidal), in words
21 | CC[C@](O)(CS(=O)(=O)c1ccc(F)cc1)C(=O)Nc1ccc(C#N)c(C(F)(F)F)c1 [(R)-XXIII-2] | weak cytostatic effect
22 | N#Cc1ccc(OCC(O)(Cc2ccccc2)C(=O)Nc2ccc(C#N)c(C(F)(F)F)c2)cc1 (stereo in doubt) [(R)-XXIV-9] | cell killing activity
23 | N#Cc1ccc(NC(=O)[C@](O)(Cc2cc(F)cc(F)c2)CS(=O)(=O)c2ccc(F)cc2)cc1C(F)(F)F [(R)-XXIII-9] | cell killing activity

Test system: PC-3 cell line
Assay: SRB cytotoxicity, PC-3
Type: cell-based, human
Details: PC-3 (no AR), 144 h, up to 20 μM
Description: (§6) FIGS. 16-25: cytotoxic effect of compounds (R)-XXIII-2, (R)-XXIII-3, (R)-XXIII-4, (R)-XXIII-5, (R)-XXIII-6, (R)-XXIII-7, (R)-XXIII-8, (R)-XXIII-9, (R)-XXIII-10, (R)-XXIV-9 on PC-3 and DU-145 cell lines at different concentration (0.02, 0.2, 2, 20 μM) after 144 h exposure. On the x-axis is reported the concentration, while on the y-axis is reported the inhibition of the net growth (% net growth).
as §3, §4

Row | SMILES | cytotoxic activity, in words
24 | CC[C@](O)(CS(=O)(=O)c1ccc(F)cc1)C(=O)Nc1ccc(C#N)c(C(F)(F)F)c1 [(R)-XXIII-2] | negligible cytotoxic activity
25 | N#Cc1ccc(OCC(O)(Cc2ccccc2)C(=O)Nc2ccc(C#N)c(C(F)(F)F)c2)cc1 (stereo in doubt) [(R)-XXIV-9] | maintain their cytostatic and cytocidal activity
26 | N#Cc1ccc(NC(=O)[C@](O)(Cc2cc(F)cc(F)c2)CS(=O)(=O)c2ccc(F)cc2)cc1C(F)(F)F [(R)-XXIII-9] | maintain their cytostatic and cytocidal activity reaching LC50 values

Test system: DU145 cell line
Assay: SRB cytotoxicity, DU145
Type: cell-based, human
Details: DU145 (no AR), 144 h, up to 20 μM
Description: as §6, §3, §4

Row | SMILES | cytotoxic activity, in words
27 | CC[C@](O)(CS(=O)(=O)c1ccc(F)cc1)C(=O)Nc1ccc(C#N)c(C(F)(F)F)c1 [(R)-XXIII-2] | negligible cytotoxic activity
28 | N#Cc1ccc(OCC(O)(Cc2ccccc2)C(=O)Nc2ccc(C#N)c(C(F)(F)F)c2)cc1 (stereo in doubt) [(R)-XXIV-9] | maintain their cytostatic and cytocidal activity
29 | N#Cc1ccc(NC(=O)[C@](O)(Cc2cc(F)cc(F)c2)CS(=O)(=O)c2ccc(F)cc2)cc1C(F)(F)F [(R)-XXIII-9] | maintain their cytostatic and cytocidal activity reaching LC50 values

Test system: human hepatoblastoma cell line HepG2
Assay: Cytotoxic activity on HepG2 (hepato-toxicity)
Type: cell-based
Details: HepG2, up to highest concentration tested
Description: as §3, §4
FIG. 27-36 show the cytotoxic activity of the drugs on the human hepatoblastoma cell line HepG2. The authors evaluated in vitro the potential hepato-toxicity of some of the novel compounds on HepG2 cell line, a human hepatoblastoma cell line that retains the specialized function of normal hepatocytes [Knowles B B, Howe C C, Aden D P. Human hepatocellular carcinoma cell lines secretes the major plasma proteins and hepatitis B surface antigen. Science 1980, 209:497-499; Aden D P, Vogel A, Plortkin S, Damjanov I, Knowles B B. Controlled synthesis of HBS Ag in a differentiated human liver carcinoma-derived cell line. Nature, 1979, 282:615-616].

Row | SMILES | hepato-toxicity, in words | LC50
30 | CC[C@](O)(CS(=O)(=O)c1ccc(F)cc1)C(=O)Nc1ccc(C#N)c(C(F)(F)F)c1 [(R)-XXIII-2] | did not display toxicity | –
31 | N#Cc1ccc(OCC(O)(Cc2ccccc2)C(=O)Nc2ccc(C#N)c(C(F)(F)F)c2)cc1 (stereo in doubt) [(R)-XXIV-9] | did not display toxicity | –
32 | N#Cc1ccc(NC(=O)[C@](O)(Cc2cc(F)cc(F)c2)CS(=O)(=O)c2ccc(F)cc2)cc1C(F)(F)F [(R)-XXIII-9] | Hepato-toxicity was observed | not able to reach LC50 value
